Assay results from ChEMBL document CHEMBL1201862, “PubChem BioAssay data set” (2004).
The source made the active and inactive calls.

Tests used:
[1] = molecular target: Disintegrin and metalloproteinase domain-containing protein 17 (Homo sapiens, UniProt P78536); assay: ADAM17 protease inhibitors, dose response, counter-screen for ADAM10 exosite inhibitor project, biochemical, quenched FRET substrate (AID 743253)
[2] = ADAM10 inhibitors, peptide cleavage, dose response, biochemical, QFRET (AID 743254);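 also: ADAM10 enzyme with the DM2 quenched FRET peptide as substrate; EDANS fluorescence gain as the protease cuts the substrate; inhibitor potency against ADAM10 proteolytic activity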
[3] = A549 cell cytotoxicity, dose response, cytotoxicity control, plate reader, cherry-pick, antagonist series (AID 743412); format: functional, cell-based
[4] = HEK293 cell cytotoxicity, dose response, cytotoxicity control, plate reader, cherry-picked samples (AID 743446); format: functional, cell-based
[5] = molecular target: Induced myeloid leukemia cell differentiation protein Mcl-1 (Homo sapiens, UniProt Q07820); format: functional
[6] = LGR2 antagonists, dose response, cell-based, HEK293, CRE-luciferase reporter, cherry pick, set 2 (AID 743343); format: functional;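 also: transfected cells were stimulated with diluted bursicon conditioned medium after compound addition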
[7] = HepG2 cell cytotoxicity, dose response, cytotoxicity control, plate reader, cherry-pick, antagonist series (AID 743416); format: functional, cell-based
[8] = molecular target: NAD-dependent protein deacylase sirtuin-5, mitochondrial (Homo sapiens, UniProt Q9NXA8); assay: SIRT5 desuccinylase inhibitors, dose response, biochemical, fluorescence imaging, cherry-pick, set 5 (AID 720591);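 also: desuccinylation of succinyl peptide AMC substrate read as fluorescence after trypsin release; potency of inhibitors that lower fluorescence and may act on trypsin instead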
cells [9] = format: functional
Kallikrein-7 = Kallikrein-7 (Homo sapiens, UniProt P49862); assay: Fluorescence Intensity-based biochemical primary high throughput dose response assay to identify activators of kallikrein-7 (K7) zymogen.
cells [10] = assay: cells
Major prion protein = Major prion protein (Homo sapiens, UniProt P04156); format: functional, cell-based
[11] = cytotoxicity toward NIH3T3 fibroblasts, dose response, counter-screen, cell-based, ATP luminescence, mouse fibroblasts (AID 2010); format: functional;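 also: cells exposed to compound for about 90 hours before reading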
[12] = inhibitors of intracellular T. cruzi replication, confirmation, NIH3T3 host cells, beta-gal luminescence (AID 2044); format: functional, cell-based;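 also: intracellular parasites grown in NIH/3T3 mouse fibroblasts as host cells; luminescent beta-galactosidase reporter signal from transgenic T. cruzi replicating inside host cells; inhibitors lower the luminescence signal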
[13] = CEM21 lymphoblast cell cytotoxicity, dose response, cytotoxicity control for viral fusion inhibitor project, CellTiter-Glo luminescence, cherry-picked (AID 652042); format: functional, cell-based;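 also: potency for signal decrease meaning cytotoxicity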
[14] = inhibitors of HIV Env-driven cell fusion, dose response, cherry-pick (AID 652057); format: functional, cell-based
[15] = MC4R antagonists, dose response, counter-screen for LGR2 antagonist project, cell-based, plate reader, cherry pick (AID 743444); format: functional;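 also: transfected HEK 293 cells stimulated with alpha-MSH peptide; potency of inhibitors of the alpha-MSH evoked signal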
Vero = assay: cells; format: functional; conditions: Chlorocebus sabaeus

In the case of COc1ccc(OC(F)(F)F)cc1CC1(C)C(=O)Nc2ccc(-c3ccsc3)cc21 (stereo not given), the IC50 [1] is reported as > 69.5 µM (inactive) and the IC50 [2] is reported as 8.48 µM (active).

For COc1cc(/C=N/Nc2nc(C)nc3c2cnn3-c2ccccc2)ccc1O, the AC50 [3] was 8.71 µM (active), the AC50 [4] was > 52 µM (inactive) and the IC50 [5] was 9.67 µM (active). The AC50 [6] was 23.1 µM (active) and the AC50 [7] was 27.1 µM (active).

In the case of CCCCC[C@H](C)N1C[C@@H](COCc2ccccc2)Oc2cc(N3CCC[C@H]3CO)ccc2S1(=O)=O, the AC50 [8] is reported as > 30 µM (inactive).

For COC(=O)C(C)Oc1ccc2cc(-c3ccccc3)c(=O)oc2c1 (stereo not given), the IC50 (cells [9]) was 6.14 µM (active) and the EC50 (Kallikrein-7) was 5.16 µM (active).

With CC(=O)c1cc2c(cc1NS(=O)(=O)c1ccccc1Br)OCO2 the EC50 (Kallikrein-7) was 66.2 µM (inactive).

For Cc1c(C(=O)c2ccccc2C(=O)O)sc2ccccc12, the IC50 (cells [10]) was > 138 µM (inactive) and the IC50 (Major prion protein) was 8.21 µM (active).

For CCOC(=O)c1c(C)n(C)c2ccc(OCC(O)CNCCc3ccccc3)cc12 (stereo not given), the AC50 [3] was 37.7 µM (active), the EC50 [11] was 4.89 µM (active) and the AC50 [4] was > 52 µM (inactive). For the same compound, the EC50 [12] was 0.601 µM (active) and the AC50 [7] was 21.9 µM (active).

With C[C@H]1CN([C@@H](C)CO)S(=O)(=O)c2ccc(-c3ccc(F)cc3)cc2O[C@H]1CN(C)Cc1cccc(F)c1 the AC50 [13] was 19.9 µM (active) and the AC50 [14] was 12.4 µM (active).

In the case of CCCCN(CCCNC(=O)c1ccc2c(c1)NC(=O)CN2C)c1ccccc1, the AC50 [4] is reported as 16.7 µM (active), the AC50 [15] is reported as 23.9 µM (active) and the CC50 (Vero) is reported as > 25 µM (active). For the same compound, the AC50 [6] was 21.6 µM (active).

In the case of CCCCCCCCN1C(=O)[C@H](CC(=O)NCC2CCCCC2)C[C@@]2(C(=O)OCC)CCC=C12, the AC50 [8] is reported as 27.7 µM (active).
